Assay [1] has as its target p97 (Homo sapiens, UniProt P55072). The experiment in a line: P97 ATPase biochemical assay (ADP Glo). As for the experimental part: The ATPase assay is performed according the following protocol: Purified enzyme (20 nM p97), substrate (20 μM ATP) and a dose titration of compounds are mixed in buffer (50 mM TRIS pH 7.5, 20 mM MgCl2, 0.02% TX-100, 1 mM DTT, 0.2% (v/v) glycerol) and incubated at 37° C. for 15 minutes. The reaction is terminated and the level of product generated is measured using the ADP Glo Assay Kit (Promega, Madison Wis.). Plotting product generated versus compound concentration and using a four-parameter fit model generates an IC50 value for each compounds.
The p97 assay is an initial screening assay used to determine inhibitory activity of the monocyclic pyrimidine compounds of the invention against the p97 complex. As discussed above, inhibition of activity of the p97 proteosome complex can enable apoptosis and cause elimination of neoplastic cells (cancer cells). The method follows that of Christianson in Nat. Cell Biol., (2011) 14:93.
Assay Buffer is a mixture of 50 mM TRIS pH 7.5, 20 mM MgCl2, 0.02% TX-100, 1 mM DTT and 0.2% (v/v) Glycerol. The well plate is Platetype: Corning 3674, 384w plate. The identification kit is an ADP glo kit (Promega): stop buffer, detection reagent.
Serial dilute compound in DMSO in a 1:3.33-fold 10 point serial dilution.
0.5 μL compound serial diluted in DMSO (Final Conc. 10%)
2 μL ATP (Final Conc.=20 uM, diluted in assay buffer)
2.5 μL p97 (Final Conc.=20 nM, diluted in assay buffer)
Incubate at 37 degC for 15 min.
Add 5 μL of stop buffer, incubate at RT for 40 min.
Add 10 μL of detection reagent, incubate at RT for 30 min.
Read luminescence on Envision plate reader. • Upon obtaining the data from the luminescence reading, the data may be analyzed as follows:
Normalize luminescence data using no enzyme (full inhibition) and no compound (no inhibition) controls. Plot normalized luminescence data against log-transformed concentration values and fit to a sigmoidal curve to determine IC50 values (done in Collaborative Drug Discovery software).
The results are reported on the following Table for Examples A-EE and the E1-E4 compounds as 50 percent Inhibitory concentration at candidate doses of less than 30 nM, less than 100 nM, less than 300 nM and less than 1000 nM for the p97 inhibition assay.

Assay [2] relates to A549 cells. The experiment in a line: Cultured cancer cell viability assay (cell titer glo, A549 CTG). In kind it is cell-based. The settings on record: Homo sapiens. From the text: Anti-tumor effects are monitored in cultured cancer cells after several days of compound treatment. The cell titer glo assay (Promega) measures the amount of ATP present as a proxy for cellular viability. Cellular counting is done using high-content microscopy followed by image analysis. A hanging drop 3D-culture system (3D Biomatrix) is used followed by cell titer glo to measure growth in a tumor-like environment.
The cellular assay provides information about the anti-neoplastic activity of the compounds of the invention. The compounds are tested against cultured cancer cells to determine whether or not the compounds of the invention are capable of intersecting with cancer cells to minimize or eliminate such cells. The assay involves establishing colonies of such cells and then treating them with the test compound under specified conditions and analysis regime to determine results.
(§1) Plate 25 μL of A549 cells in every well of 384-well plate using multidrop.
One (1) white plate for viability at 500 cells/well.
Serial dilute compounds with a 10 point 2-fold serial dilution in DMSO to make 250× stock compound solution
Dilute compounds 1:125 in cell culture media to make a 2× solution Add 25 μl of dilution compounds to cell plates in well duplicates
Put cells back in incubator (6 hr incubation for black plates, 72 hr incubation for white plates).
Thaw an aliquot of frozen cell titer glo (Promega G7572) at room temperature.
Add 45 mL of NaCl/PBS solution to 5 ml of cell titer glo (10×).
Remove white plates from incubator, leave at room temp for 30 minutes.
Add 25 μl of diluted cell titer glo to each well.
Shake plate for >1 minute.
Incubate plate for >5 minutes to stabilize luminescence. • Luminescence is stable for up to 3 hours.
Read luminescence on plate reader
The results are reported on the following Table I for Examples A-EE and the E1-E4 compounds as 50 percent Inhibitory concentration at candidate doses of less than 1 μM, less than 3 μM and less than 10 μM for both of the K48 antibody and the p53 (CTG) antibody assays
On the technique in general: Cellular ATP, detected with luciferase, serves as a proxy for viable cell number.

Assay [3] relates to K48 poly-Ubiquitin accumulation in A549 cells. The assay can be described thus: A549 K48 poly-ubiquitin accumulation immunofluorescence assay. In kind it is cell-based. The settings on record: Homo sapiens. The method, then:
Image-analysis is used to generate quantitative data from these assays that can be fit to a four-parameter sigmoid curve to derive IC50 values. Substrates of the ubiquitin-proteasome system, such as p53, are monitored after tumor cell lines are incubated with compounds for several hours. Accumulation of these proteins indicates an inhibition of proteasome-mediated degradation. Accumulation of lysine-48 chain linkage of poly-ubiquitin is also monitored by immunofluorescence as an indicator of ubiquitin-proteasome system inhibition. Both LC3 and SQSTM1 are mediators of autophagy. The localization and amounts of these proteins are monitored by immunofluorescence and report on the activity and inhibition of autophagy in response to p97 inhibition.
as §1
Two (2) black plates for IF at 2500 cells/well
Serial dilute compounds with a 10 point 2-fold serial dilution in DMSO to make 250× stock compound solution Dilute compounds 1:125 in cell culture media to make a 2× solution Add 25 μl of dilution compounds to cell plates in well duplicates Put cells back in incubator (6 hr incubation for black plates, 72 hr incubation for white plates).
Incubate cells in black plates with compound at 37 degC for 6 hrs. add 15 μL of 16% Paraformaldehyde (PFA) directly into media of each well, incubate at room temp for 5 min, flick plate and wash in 50 μL of PBS block in 50 μL of Blocking Buffer for 30 minutes (can go up to several hours) Blocking buffer: 1×PBS, 1% BSA, 0.3% Triton-X100, Hoechst (1:10,000) incubate in 25 μL of primary antibody in blocking buffer at 4 degC over night […]
Secondary Antibodies: • AlexaFluor488 Goat anti-Rabbit 1:2,000 (Life Tech A11008) • AlexaFluor555 Goat anti-Mouse 1:2,000 (Life Tech A21422) incubate in 25 μl of secondary antibody (1:2,000) in blocking buffer for 1-2 hrs at room temp (alexafluor488-anti-Rabbit/alexafluor555-anti-Mouse) Image plates in high content microscope with 405 nm, 488 nm and 555 nm filters Nuclear counts and cellular intensities of each markers are measured using Hoechst as a nuclear marker with an automated image analysis protocol using Matlab software (Math Works) The results are reported on the following Table I for Examples A-EE and the E1-E4 compounds as 50 percent Inhibitory concentration at candidate doses of less than 1 μM, less than 3 μM and less than 10 μM for both of the K48 antibody and the p53 (CTG) antibody assays

Where [4] appears, read: 20 nM p97, 20 uM ATP, 37 degC 15 min.
[5] abbreviates: A549 cells, 72 hr incubation, cell titer glo, read-out: A549 CTG IC50.
Where [6] appears, read: A549 cells, 6 hr incubation, K48-Ub antibody, read-out: A549 K48 IC50.
Setting [7] is: A549, Table II, preliminary assays, read-out: Cell Titre Glow Assay IC50.
Where [8] appears, read: A549, Table II, preliminary assays, read-out: K48 poly-Ubiquitin Accumulation.

Data on 15 compounds can be found in patent publication US9868722B2, “Monocyclic pyrimidine/pyridine compounds as inhibitors of P97 complex” (Cleave Biosciences, Inc., priority 2013, dated 2018).

pIC50: −log10 of the molar value. Where two headings read alike, the source gives them in different places.

Sequence of p97 (P55072 whole entry): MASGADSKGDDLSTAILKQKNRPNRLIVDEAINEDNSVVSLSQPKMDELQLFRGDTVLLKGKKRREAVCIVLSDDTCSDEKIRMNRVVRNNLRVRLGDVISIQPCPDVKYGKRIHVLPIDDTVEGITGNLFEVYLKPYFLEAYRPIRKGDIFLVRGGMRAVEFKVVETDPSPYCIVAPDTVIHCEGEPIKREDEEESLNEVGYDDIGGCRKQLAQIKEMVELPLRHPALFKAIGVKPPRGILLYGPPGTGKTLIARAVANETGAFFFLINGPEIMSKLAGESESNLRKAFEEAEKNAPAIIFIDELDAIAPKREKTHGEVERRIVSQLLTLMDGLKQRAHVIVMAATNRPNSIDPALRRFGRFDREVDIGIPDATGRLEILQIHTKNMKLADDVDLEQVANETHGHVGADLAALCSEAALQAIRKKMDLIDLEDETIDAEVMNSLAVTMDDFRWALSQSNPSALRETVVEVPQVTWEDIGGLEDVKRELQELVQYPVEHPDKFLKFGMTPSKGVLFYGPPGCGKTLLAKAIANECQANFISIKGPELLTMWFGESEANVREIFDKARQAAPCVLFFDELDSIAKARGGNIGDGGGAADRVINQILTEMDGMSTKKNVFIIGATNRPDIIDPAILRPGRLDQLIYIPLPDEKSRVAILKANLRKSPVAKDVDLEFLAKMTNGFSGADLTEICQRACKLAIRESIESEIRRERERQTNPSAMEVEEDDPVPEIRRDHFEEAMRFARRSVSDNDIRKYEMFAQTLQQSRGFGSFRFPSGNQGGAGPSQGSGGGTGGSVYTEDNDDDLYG

`Cc1cc2c(C(N)=O)cccc2n1-c1ncc(C(N)=O)c(NCc2ccccc2)n1` [Example 10, 1-[4-(benzylamino)-5-carbamoylpyrimidin-2-yl]-2-methyl-1H-indole-4-carboxamide]: the pIC50 was greater than 7.00 in assay [1] (setting [4]), greater than 5.00 in assay [2] (setting [5]) and greater than 5.00 in assay [3] (setting [6]).

On to `Cc1cc2c(C(N)=O)cccc2n1-c1ncc(C(C)N)c(NCc2ccccc2)n1` (stereo not drawn) [Example 35, 1-[5-(1-aminoethyl)-4-(benzylamino)pyrimidin-2-yl]-2-methyl-1H-indole-4-carboxamide], for which the pIC50 was greater than 7.00 in assay [1] (setting [4]), greater than 5.00 in assay [2] (setting [5]) and greater than 5.00 in assay [3] (setting [6]).

Consider `Cc1cc2c(C(N)=O)cccc2n1-c1ncc(N(C)C)c(NCc2ccccc2)n1` [Example 13, 1-(4-(benzylamino)-5-(dimethylamino)pyrimidin-2-yl)-2-methyl-1H-indole-4-carboxamide], for which the pIC50 in assay [1] (setting [4]) is greater than 7.52; in assay [2] (setting [5]) it was greater than 5.52; in assay [3] (setting [6]), greater than 6.00.

Regarding `COc1cnc(-n2c(C)cc3c(C(N)=O)cccc32)nc1NCc1ccccc1` [Example 3, 1-[4-(benzylamino)-5-methoxypyrimidin-2-yl]-2-methyl-1H-indole-4-carboxamide], the pIC50 in assay [1] (setting [4]) was greater than 7.52; in assay [1] (Table II, preliminary assays) it was 8.15; in assay [2] (setting [7]), 6.33; in assay [2] (setting [5]), greater than 6.00; in assay [3] (setting [8]), 6.05; in assay [3] (setting [6]) it was greater than 6.00.

On to `Cc1nc(-n2ncc3c(C(N)=O)cccc32)nc(NCc2ccccc2)c1C(C)C` [Example 11, 1-(4-(benzylamino)-5-isopropyl-6-methylpyrimidin-2-yl)-1H-indazole-4-carboxamide], for which the pIC50 in assay [1] (setting [4]) was greater than 6.52; in assay [2] (setting [5]), greater than 5.52; in assay [3] (setting [6]), greater than 5.52.

For the compound `Cc1cnc(-n2c(C)cc3c(C(N)=O)cccc32)nc1NCc1ccccc1` [Example 2, 1-[4-(benzylamino)-5-methylpyrimidin-2-yl]-2-methyl-1H-indole-4-carboxamide], the pIC50 was greater than 7.52 in assay [1] (setting [4]); 7.66 in assay [1] (Table II, preliminary assays); 6.01 in assay [2] (setting [7]); greater than 6.00 in assay [2] (setting [5]); 5.80 in assay [3] (setting [8]); greater than 5.52 in assay [3] (setting [6]).

As to `COCc1cnc(-n2c(C)cc3c(C(N)=O)cccc32)nc1NCc1ccccc1` [Example 18, 1-[4-(benzylamino)-5-(methoxymethyl)pyrimidin-2-yl]-2-methyl-1H-indole-4-carboxamide], the pIC50 in assay [1] (setting [4]) is greater than 6.52; in assay [2] (setting [5]) it was greater than 5.00; in assay [3] (setting [6]) it was greater than 5.52.

Consider `Cc1cc(NCc2ccccc2)nc(-n2c(C)cc3c(C(N)=O)cccc32)n1` [Example 1, 1-[4-(benzylamino)-6-methylpyrimidin-2-yl]-2-methyl-1H-indole-4-carboxamide], for which the pIC50 in assay [1] (setting [4]) was greater than 7.00; in assay [1] (Table II, preliminary assays), 7.38; in assay [2] (setting [7]) it was 5.70; in assay [2] (setting [5]) it was greater than 5.52; in assay [3] (setting [8]), 5.52; in assay [3] (setting [6]) it was greater than 5.00.

Regarding `Cc1nc(-n2c(C)cc3c(C(N)=O)cccc32)nc(NCc2ccccc2)c1C(C)C` [Example 8, 1-[4-(benzylamino)-6-methyl-5-(propan-2-yl)pyrimidin-2-yl]-2-methyl-1H-indole-4-carboxamide], the pIC50 in assay [1] (setting [4]) was greater than 7.52; in assay [2] (setting [5]), greater than 5.52; in assay [3] (setting [6]), greater than 6.00.

For `CC(=O)NCc1cnc(-n2c(C)cc3c(C(N)=O)cccc32)nc1NCc1ccccc1` [Example 24, 1-[4-(benzylamino)-5-(acetamidomethyl)pyrimidin-2-yl]-2-methyl-1H-indole-4-carboxamide], the pIC50 in assay [1] (setting [4]) was greater than 6.52; in assay [2] (setting [5]) it was greater than 5.00; in assay [3] (setting [6]), greater than 5.00.

`CCOc1cnc(-n2c(C)cc3c(C(N)=O)cccc32)nc1NCc1ccccc1` [Example 27, 1-[4-(benzylamino)-5-ethoxypyrimidin-2-yl]-2-methyl-1H-indole-4-carboxamide]: the pIC50 in assay [1] (setting [4]) was greater than 7.52; in assay [2] (setting [5]), greater than 5.52; in assay [3] (setting [6]) it was greater than 5.52.

For the compound `Cc1cc2c(C(N)=O)cccc2n1-c1ncc(OC(C)C)c(NCc2ccccc2)n1` [Example 26, 1-[4-(benzylamino)-5-(propan-2-yloxy)pyrimidin-2-yl]-2-methyl-1H-indole-4-carboxamide], the pIC50 in assay [1] (setting [4]) was greater than 7.00; in assay [2] (setting [5]), greater than 5.52; in assay [3] (setting [6]), greater than 5.52.

Take `Cc1cc2c(C(N)=O)cccc2n1-c1ncc(S(C)(=O)=O)c(NCc2ccccc2)n1` [Example 19, 1-[4-(benzylamino)-5-(methylsulfonyl)pyrimidin-2-yl]-2-methyl-1H-indole-4-carboxamide]: the pIC50 in assay [1] (setting [4]) was greater than 7.00; in assay [2] (setting [5]), greater than 5.52; in assay [3] (setting [6]), greater than 5.52.

Turning to `COc1nc(-n2c(C)cc3c(C(N)=O)cccc32)nc(NCc2ccccc2)c1C` [Example 33, 1-(4-(benzylamino)-6-methoxy-5-methylpyrimidin-2-yl)-2-methyl-1H-indole-4-carboxamide], the pIC50 in assay [1] (setting [4]) was greater than 7.52; in assay [2] (setting [5]), greater than 5.00; in assay [3] (setting [6]) it was greater than 5.52.

For `COc1cnc(-n2c(CN)cc3c(C(N)=O)cccc32)nc1NCc1ccccc1` [Example 29, 2-(aminomethyl)-1-(4-(benzylamino)-5-methoxypyrimidin-2-yl)-1H-indole-4-carboxamide], the pIC50 is greater than 7.00 in assay [1] (setting [4]), greater than 5.52 in assay [2] (setting [5]) and greater than 6.00 in assay [3] (setting [6]).
